Test results as given in article PMC6344423, “Opposing Actions of Adrenocorticotropic Hormone and Glucocorticoids on UCP1-Mediated Respiration in Brown Adipocytes” (Frontiers in Physiology, 2019).

Tests used:
[1] = system: Ucp1 gene expression in primary brown adipocytes of Ucp1^ki/ki mice; assay: Luciferase assay, FLUC activity as surrogate for Ucp1 expression; format: cell-based, mouse; conditions: overnight stimulation, normalized to total protein content, n = 3, Figure 1D
Experimental: After overnight stimulation of primary brown adipocytes of Ucp1^ki/ki mice luciferase activity was assayed using a commercial kit system (Luciferase Assay System Freezer Pack E4030, Promega GmbH). Primary cells were lysed in 1x reporter lysis buffer by shaking for 20 min at room temperature. 10 μl lysate was mixed with 50 μl luciferase assay substrate solution, and the mixture was measured by FB12 in a luminometer (Single Tube Luminometer, Titertek-Berthold GmbH). Bioluminescence readouts were normalized to total protein content.
We then measured FLUC activity in primary brown adipocytes from Ucp1^ki/ki reporter gene mice to determine the effect of the GsPCR ligands on Ucp1 gene expression in response to overnight stimulation. As the expression of Fluc in these cells is driven by Ucp1promoter, FLUC activity served as a surrogate for Ucp1 expression.

[2] = system: Ucp1 mRNA in primary brown adipocytes; assay: Ucp1 gene expression analysis (qRT-PCR), brown adipocytes; format: cell-based, mouse
Experimental: (§1) Total RNA was isolated using Trisure (Bioline) and purified with SV total RNA Isolation System (Promega). Reverse transcriptase reactions were performed using SensiFAST cDNA Synthesis Kit (Bioline). Quantitative real-time PCR (qRT-PCR) was performed with SYBR green fluorescent dye in 384-well format using LightCycler 480 (Roche). General Transcription Factor IIB (Gtf2b) served as an internal control. To be able to calculate relative gene expression levels of samples, standard reactions containing serial diluted pooled cDNA of all samples (Pure, 1:2, 1:4, 1:8, 1:16, 1:32 and 1:64) as a template were used to establish a standard curve. The RNA abundance of Ucp1 gene was normalized to the housekeeping gene Gtf2b. The following primers were used: […]

[3] = system: Ucp1 mRNA in primary white adipocytes; assay: Ucp1 gene expression analysis (qRT-PCR), white adipocytes; format: cell-based, mouse; conditions: two different doses of ACTH, iWAT adipocytes, normalized to Gtf2b, n = 4, Figure 3B
Experimental: as §1

[4] = system: BAT; conditions: supraphysiological dose, 15 μM ACTH; ref van den Beukel et al., 2014; cited from earlier work
Excerpt: (§2) The melanocortins ACTH and α-MSH are known for their lipolytic action in rodent adipocytes, as first reported in 1958 ([Lafontan, 2012]; [Braun et al., 2018]). […] ACTH enhanced BAT function in obese rats ([York and Al-Baker, 1984]), and increased glucose transport and respiration in isolated brown adipocytes ([Marette and Bukowiecki, 1990]) via fatty acid activation of mitochondrial uncoupled respirati ...

[5] = system: T37i cells; conditions: ref Iwen et al., 2008, van den Beukel et al., 2014; cited from earlier work
Excerpt: as §2

[6] = system: immortalized murine adipocytes; conditions: ref Iwen et al., 2008, van den Beukel et al., 2014; cited from earlier work
Excerpt: as §2

[7] = system: primary brown adipocytes; assay: Microplate-based respirometry (XF96), UCP1-mediated uncoupled respiration; format: cell-based, mouse
Experimental: (§3) Oxygen consumption of primary brown adipocytes was measured at 37°C using microplate-based respirometry (XF96 extracellular flux analyzer, Seahorse Bioscience) as described previously ([Li et al., 2014b]) following the subsequent protocol at day 7 of differentiation. Prior to the respiration measurement, primary cells were washed with warmed, unbuffered assay medium (DMEM basal medium supplemented with 25 mM glucose, 31 mM NaCl, 2 mM GlutaMax and 15 mg/l phenol red, pH 7.4) (basal assay medium). Subsequent to the medium replacement with basal assay medium containing 1–2% essentially fatty acid free bovine serum albumin (BSA), cells were incubated at 37°C in a CO2-free incubator for 1 h. Assay reagents were loaded into the drug injections ports of the sensor cartridges at 10X in basal assay medium (no BSA). After assessment of basal oxygen consumption in untreated cells oligomycin (5 μM) was injected to inhibit coupled respiration and to determine basal leak respiration. Next, effector was added to investigate UCP1-dependant uncoupled respiration. By the addition of FCCP (1 μM) maximal respiratory capacity was determined. Lastly, non-mitochondrial oxygen consumption was assessed by blocking mitochondrial respiration with antimycin A (5 μM). For some experiments, cells were pretreated for 1 h with 50 μM H89 (PKA inhibitor), 1–100 μM propranolol (β-adrenergic receptor antagonist), 40 μM Atglistatin (ATGL inhibitor) and 40 μM Hi76-0079 (HSL inhibitor) 1 h prior to the measurement. Oxygen consumption rates were automatically calculated by the Seahorse XF-96 software. Each experiment was repeated at least three times with similar results and five to eight replicate wells for every condition in each independent experiment. Results are predominately expressed as stimulated respiration which is calculated as fold increase of basal leak.
In our first screen, we tested whether these GsPCR ligands can activate oxygen consumption acutely in brown adipocytes. UCP1-mediated uncoupled respiration was quantified in cultured adherent intact primary brown adipocytes, according to a protocol established in our lab ([Li et al., 2014b]). After recording basal respiration and the fraction of coupled and uncoupled respiration, UCP1-dependent respiration was measured. Finally, maximal respiratory capacity and non-mitochondrial oxygen consumption were assessed by adding the uncoupling agent carbonyl cyanide 4-(trifluoromethoxy) phenylhydrazone (FCCP) and antimycin A was added to block the electron transport chain, respectively. All respiration assays were performed in the presence of BSA to buffer free fatty acid (FFA) levels in the respiration medium.

[8] = system: cytosolic cAMP in primary brown adipocytes; assay: Quantification of cellular cAMP (cAMP-Glo Assay); format: cell-based, mouse
Experimental: Changes in cytosolic cAMP concentrations were determined in primary brown adipocytes in response to ACTH- or isoproterenol stimulation using cAMP-Glo Assay (Promega) following the manufacturer’s instructions.

[9] = system: primary brown adipocytes of UCP1^-/-; assay: Respirometry in primary brown adipocytes of UCP1^-/- mice; format: cell-based, mouse; conditions: ACTH 1 μM, n = 3, Figure 2G
Experimental: as §3, with “Next, effector was added to investigate UCP1-dependant uncoupled respiration.” left out, “For some experiments, cells were pretreated for 1 h with 50 μM H89 (PKA inhibitor), 1–100 μM propranolol (β-adrenergic receptor antagonist), 40 μM Atglistatin (ATGL inhibitor) and 40 μM Hi76-0079 (HSL inhibitor) 1 h prior to the measurement.” left out, “Each experiment was repeated at least three times with similar results and five to eight replicate wells for every condition in each independent experiment.” left out

[10] = dose–response experiment, Figure 2A

Substance: ACTH: Murine ACTH(1-39), 39 amino acid peptide hormone, ligand for the melanocortin 2 receptor (MC2R) (SYSMEHFRWGKPVGKKRRPVKVYPNVAENESAEAFPLEF; Corticotropin; UniProt P01193 124-162, looked up)
- FLUC (luciferase) activity as surrogate for Ucp1 expression [1]: moderate rise in FLUC activity
- Maximal induction of Ucp1 mRNA relative to ISO ([2]; 1 μM ACTH vs ISO 500 nM, Figures 3A,B): comparable to the effect of ISO treatment
- Ucp1 mRNA levels, differentiated brown adipocytes ([2]; two different doses of ACTH, normalized to Gtf2b, n = 4, Figure 3A): dose-dependent increase in Ucp1 mRNA levels
- Ucp1 mRNA levels, differentiated white adipocytes [3]: dose-dependent increase in Ucp1 mRNA levels
- Glucose uptake into BAT [4]: increased glucose uptake into BAT
- ACTH concentration at which adipocytes respond in cell culture [5]: 50 nM
- ACTH concentration at which adipocytes respond in cell culture [6]: 100 nM
- ACTH concentration that stimulated respiration (fold increase over basal leak respiration) [7, 10]: 200 nM
- ACTH concentration with the most robust effect on stimulated respiration [7, 10]: 1 µM
- Stimulated respiration (UCP1-dependent uncoupled respiration) as fold increase of basal leak respiration, GsPCR ligand screen ([7]; primary brown adipocytes (129S6 mice), acute addition after oligomycin 5 μM, medium with 1–2% fatty acid free BSA, 37°C, n = 5, Figures 1B,C): most prominent induction of UCP1-dependant uncoupled respiration
- Cytosolic cAMP levels after ACTH stimulation ([8]; increasing concentrations, 30 min, n = 3, Figure 2D): dose-dependent increase of cytosolic cAMP levels
- EC50 ([8]; stimulation for 30 min, n = 3, non-linear regression, Figure 2D): 1490 nM
- ACTH-stimulated respiration in UCP1^-/- compared to UCP1^+/+ cells [9]: attenuated in primary brown adipocytes of UCP1^-/-
